Results published in paper PMC8571378, “Reversion analysis reveals the in vivo immunogenicity of a poorly MHC I-binding cancer neoepitope” (Nature Communications, 2021).
No end group written: not given here.

Key:
Meth A = assay: Tumor rejection (immunization-challenge) assay; tumor growth AUC and tumor rejection score (TRS); format: in vivo, BALB/cJ mice; conditions: BALB/cJ mice immunized twice, CTLA4 blockade
Protocol: Each line represents tumor growth in a single mouse (n = 5 mice per group). AUC for each group is plotted in the panel on the right. Data are presented as mean ± SD. P values were calculated using 1-way ANOVA test adjusted for multiple comparisons (Tukey’s multiple comparison test). c Several truncated versions of the 18-mer Ccdc85c^MUT peptide were tested in tumor rejection assay. BALB/cJ mice were immunized and tumor challenged. Each line represents tumor growth in a single mouse. Although mice were immunized with individual peptides, the data for multiple peptides are grouped into one with the composition of the peptides shown on the right. The tumor rejection data for individual peptides are shown in Supplementary Fig. 1. Tumor rejection score (TRS) for each neoepitope is shown in the yellow box, where five represents a complete tumor protection and zero means no tumor rejection. d On the left panel, total Area Under the Curve (AUC) scores for each group in B are plotted. […] Error bars represent standard deviation (SD). […] P values were calculated using 1-way ANOVA test adjusted for multiple comparisons. […] Matched peak lists for the “heavy” and “light” ions were extracted and monitored, while only single charge y ions were plotted. See Methods for details. f Predicted (by NetMHC4.0) and measured IC50 values of the binding of candidate precise neoepitopes of Ccdc85c^MUT to K^d are shown. […] The affinities of the MS/TRS predicted neoepitopes were also measured for D^d and L^d; measured affinities were below the level of detection.
The mutation is heterozygous and the un-mutated as well as the mutated reads are detected in the transcripts. […] All mice were challenged with the Meth A cells, and tumor rejection was monitored (Fig. 1b upper panel). […]
Area under the curve (AUC) is used as a tool to measure tumor growth. Briefly, AUC was calculated by selecting “Curves & Regression” and then “Area under curve” from the “analyze” tool, using the Prism 5.0 (GraphPad). […]

splenic CD8 T cells = assay: ELIspot for interferon γ of splenic CD8 T cells from immunized mice; format: cell-based, BALB/c mice; conditions: spleens seven days after second immunization; in vitro stimulation with immunizing 18-mer, 10 µM
Text: BALB/c mice were immunized with 18-mer peptides containing Ccdc85c^MUT as well as Ccdc85c^WT as described in Methods. Spleens were harvested seven days after the second immunization and splenic CD8 T cells tested by ELIspot for interferon γ production in response to stimulation in vitro with the peptides used for immunization. […] Since the CD8 response detected in vitro was so modest, CD8 response as detected in vivo in the tumor microenvironment became our focus.
Supplementary Fig. 3. CD8 response to Ccdc85cMUT and Ccdc85cWT peptides. BALB/c mice were immunized twice at a weekly interval with 18-mer peptides containing Ccdc85cWT (left) or Ccdc85cMUT (right) as described in Methods. Spleens were harvested seven days after the second immunization and CD8 T cells stimulated in vitro with the peptides (10 µM concentration) used for immunization, as indicated. CD8 cells were analyzed for release of interferon g. Each dot represents a single mouse. The P values were calculated using two tailed t-test. Data are presented as mean values +/- SD. […]

H2-A^d = assay: MHC II cell-surface density assay, H2-A^d; format: cell-based, mouse; conditions: NIH3T3 cells, flow cytometry 48 h after transduction; peptides adjusted to 12-mer with N-terminal glycines; MUT vs WT counterpart
Text: (§1) In order to determine if any peptides within Ccdc85c^MUT could be presented by MHC II molecules, we analyzed the interaction of H2-A^d and H2-E^d with […], […] and IRPFETKVK as well as their wild type counterparts, using a cell-surface density assay. In this assay, β-chains of H2-Ab1^d or H2-Eb1^d are expressed in fusion with the peptide of interest and the amount of cell-surface MHC II, as a measure of intrinsic stability of MHC II, is quantified in engineered conditions. The measured cell-surface MHC density correlates well with the actual affinity of the peptide to MHC II. […] This was observed when CD4 depletion was carried out during the priming phase alone (as in Supplementary Fig. 2b), or throughout the entire experiment including the effector phase (i.e. post tumor challenge).
(§2) MHC II-peptide binding analysis was conducted by cell-surface density assay[18] with modifications. […] Cell-surface expression of H2-A^d or H2-E^d and cytoplasmic expression of GFP in GFP^+ MHC^+ cells were measured by flow cytometry 48 h after the transduction, using the following antibodies: H2-A^d, anti-mouse I-A^d mAb with the dilution of 1:10, 20 μl per sample (39-10-8, BioLegend) or mouse IgG3 isotype control with the dilution of 1:100, 10 μl per sample (m078-3, clone 6A3, Medical & Biological Laboratories Co. Ltd.) and goat anti-mouse IgG3-PE with the dilution of 1:20, 15 μl per sample (sc-3767, Santa Cruz Biotechnology, Inc.); H2-E, anti-I-E^d mAb with the dilution of 1:40, 10 μl per sample (115002, 14-4-4 S, Thermo Fisher) or mouse IgG2a isotype control with the dilution of 1:10, 10 μl per sample (m076-3, clone 6H3, Medical & Biological Laboratories Co. Ltd.) and goat F(ab’)2 Anti-mouse Ig-PE with the dilution of 1:20, 20 μl per sample (1012-09, Southern Biotechnology Associates Inc.). The ratio of MHC MFI to GFP MFI (MHC/GFP) for each MHC II-peptide combination was calculated and normalized to the MHC/GFP for respective MHC II allele-G9 peptide. On each assay date, MHC/GFP for each MHC II-peptide combination was measured for three or four wells and their average was determined. […]

H2-E^d = assay: MHC II cell-surface density assay, H2-E^d; format: cell-based, mouse; conditions: NIH3T3 cells, flow cytometry 48 h after transduction; peptides adjusted to 12-mer with N-terminal glycines; MUT vs WT counterpart
Text: as §1, §2

K^d = molecular target: T1, K^d (Mus musculus, UniProt P01902); assay: Measured peptide binding to K^d
T1 sequence (P01902 22-368): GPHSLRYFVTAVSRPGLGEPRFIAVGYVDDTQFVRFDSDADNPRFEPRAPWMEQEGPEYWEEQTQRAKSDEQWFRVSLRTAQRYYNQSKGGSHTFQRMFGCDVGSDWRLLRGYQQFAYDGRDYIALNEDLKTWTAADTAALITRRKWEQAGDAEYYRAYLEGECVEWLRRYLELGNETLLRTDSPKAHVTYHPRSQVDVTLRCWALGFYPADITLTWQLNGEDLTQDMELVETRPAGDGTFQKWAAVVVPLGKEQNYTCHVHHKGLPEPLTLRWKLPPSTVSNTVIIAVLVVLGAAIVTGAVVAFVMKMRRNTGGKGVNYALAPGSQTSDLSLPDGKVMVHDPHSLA
T1 sequence (P01887 21-119 partner): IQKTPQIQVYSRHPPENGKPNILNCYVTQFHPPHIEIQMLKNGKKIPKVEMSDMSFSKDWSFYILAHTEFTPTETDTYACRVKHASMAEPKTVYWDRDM
Protocol: Each line represents tumor growth in a single mouse (n = 5 mice per group). AUC for each group is plotted in the panel on the right. Data are presented as mean ± SD. P values were calculated using 1-way ANOVA test adjusted for multiple comparisons (Tukey’s multiple comparison test). c Several truncated versions of the 18-mer Ccdc85c^MUT peptide were tested in tumor rejection assay. BALB/cJ mice were immunized and tumor challenged. Each line represents tumor growth in a single mouse. Although mice were immunized with individual peptides, the data for multiple peptides are grouped into one with the composition of the peptides shown on the right. The tumor rejection data for individual peptides are shown in Supplementary Fig. 1. Tumor rejection score (TRS) for each neoepitope is shown in the yellow box, where five represents a complete tumor protection and zero means no tumor rejection. d On the left panel, total Area Under the Curve (AUC) scores for each group in B are plotted. […] Error bars represent standard deviation (SD). The P values corresponding to the comparison of TRS = 0 with TRSs 5.0, 4.0–4.5 and 3.0–3.3 were respectively <0.0001, <0.0001 and 0.0002. P values were calculated using 1-way ANOVA test adjusted for multiple comparisons. On the right, peptides with the highest and the lowest TRS are shown. e Targeted MS-based detection of TYIRPFETKVK and YIRPFETKVK among MHC I peptides eluted from BMDCs pulsed with the 18-mer Ccdc85c^MUT. Heavy labeled synthetic peptides were spiked into the peptide samples; the labeled amino acid is marked with a bold character and the mutation is in red. Matched peak lists for the “heavy” and “light” ions were extracted and monitored, while only single charge y ions were plotted. See Methods for details. f Predicted (by NetMHC4.0) and measured IC50 values of the binding of candidate precise neoepitopes of Ccdc85c^MUT to K^d are shown. […] The affinities of the MS/TRS predicted neoepitopes were also measured for D^d and L^d; measured affinities were below the level of detection.

D^d = assay: Measured peptide binding to D^d; design: species or system mouse
Protocol: (§3) Each line represents tumor growth in a single mouse (n = 5 mice per group). AUC for each group is plotted in the panel on the right. Data are presented as mean ± SD. P values were calculated using 1-way ANOVA test adjusted for multiple comparisons (Tukey’s multiple comparison test). c Several truncated versions of the 18-mer Ccdc85c^MUT peptide were tested in tumor rejection assay. BALB/cJ mice were immunized and tumor challenged. Each line represents tumor growth in a single mouse. Although mice were immunized with individual peptides, the data for multiple peptides are grouped into one with the composition of the peptides shown on the right. The tumor rejection data for individual peptides are shown in Supplementary Fig. 1. […] P values were calculated using 1-way ANOVA test adjusted for multiple comparisons. […] Matched peak lists for the “heavy” and “light” ions were extracted and monitored, while only single charge y ions were plotted. See Methods for details. f Predicted (by NetMHC4.0) and measured IC50 values of the binding of candidate precise neoepitopes of Ccdc85c^MUT to K^d are shown. […] The affinities of the MS/TRS predicted neoepitopes were also measured for D^d and L^d; measured affinities were below the level of detection.

L^d = assay: Measured peptide binding to L^d; design: species or system mouse
Protocol: as §3

Sequence	tumor rejection (in words) (Meth A)	CD8 response (interferon γ ELIspot) (splenic CD8 T cells)	binding of Ccdc85c^MUT versus Ccdc85c^WT to H2-IA (MHC/GFP normalized to G9) (H2-A^d)	binding of Ccdc85c^MUT versus Ccdc85c^WT to H2-IE (MHC/GFP normalized to G9) (H2-E^d)	IC50 (K^d; assay kind not described)	measured affinity for K^d (in words) (K^d)	measured affinity for D^d (D^d)	measured affinity for L^d (L^d)
DPSSTYIRPLETKVKLLD [un-mutated peptide, un-mutated 18-mer peptide of Ccdc85c]	failed to elicit protection	no CD8 response	–	–	–	–	–	–
IRPFETKVK [truncated version of the 18-mer Ccdc85c^MUT peptide]	–	–	No significant difference	No significant difference	–	–	–	–
TYIRPFETKV [TYIRPFETKV]	–	–	–	–	247 nM	–	–	–
TYIRPFETKVK	–	–	No significant difference	No significant difference	–	very low or undetectable	very low or undetectable	very low or undetectable
YIRPFETKVK	–	–	No significant difference	No significant difference	–	very low or undetectable	very low or undetectable	very low or undetectable
